Measured values from US20240166643A1, “IMIDAZO[1,2-A]PYRIDINE COMPOUNDS AND THEIR USE IN THERAPY” (Imperial College Innovations Limited, priority 2020, published 2024).
Read-outs that look alike come from different tables or passages of the source. Marks after values point to notes of the source that are not given here.

What was measured:
[1] = target: Plasmodium vivax (Pv) NMT (Plasmodium vivax (strain Salvador I), UniProt A5K1A2); test: biochemical
[2] = system: Plasmodium falciparum strain NF54; test: SYBR Green assay, Plasmodium falciparum strain NF54; conditions: NF54, read-out: Pf EC50 strain NF54
[3] = target: Human NMT1 (HsNMT1) (Homo sapiens, UniProt P30419); test: biochemical
[4] = system: Plasmodium falciparum 3D7; test: SYBR Green assay, Plasmodium falciparum strain 3D7; assay type: cell-based; conditions: P. falciparum strain 3D7, 96 h incubation, read-out: Pf EC50 strain 3D7
[5] = in vitro; conditions: male, Sprague-Dawley, rat, pooled cryopreserved rat hepatocytes, pH 7.4
[6] = Rat clearance and bioavailability (iv and oral dosing); assay type: in vivo; conditions: male, Sprague-Dawley, plasma; for half-life: iv 1 mg/kg, read-out: Rat iv t1/2 (converted)
[7] = system: P. falciparum Pf3D7^0087/N9; test: Mouse malaria model, NODscidIL2Rγnull mice engrafted with human erythrocytes; conditions: for average parasitemia values: 50 mg/kg po per day on day 3, 4, 5 and 6 post-infection
[8] = oral 5 mg/kg, cassette dosing of 4 compounds

Sequence of Human NMT1 (HsNMT1) (P30419 whole entry, looked up): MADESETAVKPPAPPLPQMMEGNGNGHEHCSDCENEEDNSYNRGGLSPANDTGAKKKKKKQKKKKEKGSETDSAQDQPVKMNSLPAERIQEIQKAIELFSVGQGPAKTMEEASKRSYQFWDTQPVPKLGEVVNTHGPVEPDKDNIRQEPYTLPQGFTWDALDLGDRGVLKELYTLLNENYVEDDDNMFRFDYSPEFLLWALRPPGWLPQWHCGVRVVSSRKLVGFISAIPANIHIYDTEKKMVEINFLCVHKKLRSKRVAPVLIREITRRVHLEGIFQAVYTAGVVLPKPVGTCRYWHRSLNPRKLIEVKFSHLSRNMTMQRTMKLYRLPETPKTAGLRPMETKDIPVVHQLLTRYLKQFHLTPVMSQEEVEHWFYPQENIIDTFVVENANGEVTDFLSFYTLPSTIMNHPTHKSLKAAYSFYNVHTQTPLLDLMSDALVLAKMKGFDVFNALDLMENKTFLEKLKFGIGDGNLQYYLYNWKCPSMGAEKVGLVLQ
Sequence of Plasmodium vivax (Pv) NMT (A5K1A2 1-410): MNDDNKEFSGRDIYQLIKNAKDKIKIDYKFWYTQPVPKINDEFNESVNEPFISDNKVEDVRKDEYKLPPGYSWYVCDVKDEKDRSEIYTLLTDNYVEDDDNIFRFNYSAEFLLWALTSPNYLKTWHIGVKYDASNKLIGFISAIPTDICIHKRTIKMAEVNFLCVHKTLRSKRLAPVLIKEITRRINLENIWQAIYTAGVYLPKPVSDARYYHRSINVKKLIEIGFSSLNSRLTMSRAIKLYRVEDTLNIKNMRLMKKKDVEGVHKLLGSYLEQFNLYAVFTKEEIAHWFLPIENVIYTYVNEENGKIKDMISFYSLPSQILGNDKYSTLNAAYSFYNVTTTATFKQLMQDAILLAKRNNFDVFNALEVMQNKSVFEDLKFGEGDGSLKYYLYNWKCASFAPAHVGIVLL

Row | SMILES | IC50 [1] | EC50 [2] | IC50 [3] | EC50 [4] | half-life at 1 µM [5] | further results
1 | C[C@H]1CN(c2ncc(Cl)c(N3CC(C(=O)NCc4cnc5ccccn45)C3)n2)CCN1 [Example 27] | 37 nM | 2820 nM |  |  |  | 
2 | COc1cnc(N2CCN(C)[C@@H](C)C2)nc1N1CC(C(=O)NC(C)(C)c2cnc3ccccn23)C1 [Example 85, 1-{2-[(3S)-3,4-dimethylpiperazin-1-yl]-5-methoxypyrimidin-4-yl}-N-(2-{imidazo[1,2-a]pyridin-3-yl}propan-2-yl)azetidine-3-carboxamide] | 8 nM |  | 6.3 nM | 14 nM | > 3 h | 
3 | COc1cnc(N2CCCNCC2)nc1N1CC(C(=O)NCc2cnc3ccccn23)C1 [Example 19] | 59 nM | 3600 nM |  |  |  | 
4 | CC(C)N1CCN(c2ncc(Cl)c(N3CC(C(=O)NC(C)(C)c4cnc5ccccn45)C3)n2)CC1 [Example 71] | 11 nM |  | 72 nM | 560 nM | > 3 h | 
5 | CN1CCN(c2ncc(Cl)c(N3CC(C(=O)N(C)C(C)(C)c4cnc5ccccn45)C3)n2)CC1 [Example 73] |  |  |  | 810 nM | > 3 h | half-life ([6]; cassette dosing of 4 compounds): 3.6 h; bioavailability [6, 8]: 65%
6 | C[C@H]1CN(c2ncc(F)c(N3CC(C(=O)NCc4cnc5ccccn45)C3)n2)CCN1 [Example 26] | 240 nM | > 2330 nM |  |  |  | 
7 | CC1CN(c2ncc(Cl)c(N3CC(C(=O)N(C)C(C)(C)c4cnc5ccccn45)C3)n2)CCN1C (centres unmarked) [Example 74] |  |  |  | 120 nM | > 3 h | half-life ([6]; administered as a single compound): 2.2 h; bioavailability ([6]; oral 10 mg/kg, administered as a single compound): 28%
8 | CCN(CC)CCCC(C)Nc1ccnc2cc(Cl)ccc12 (centres unmarked) [Chloroquine (CQ), chloroquine, reference compound] |  |  |  |  |  | average parasitemia values ([7]; day 0 post infection): 0.01%; average parasitemia values ([7]; day 3 post infection): 0.80%; average parasitemia values ([7]; day 4 post infection): 0.24%; average parasitemia values ([7]; day 5 post infection): 0.05%; average parasitemia values ([7]; day 6 post infection): 0.01%; average parasitemia values ([7]; day 7 post infection): 0.00* %
9 | CC1CN(c2ncc(F)c(N3CC(C(=O)NC(C)(C)c4cnc5ccccn45)C3)n2)C[C@H](C)N1C (stereo partly drawn) [Example 96, 1-{5-fluoro-2-[(3S,5S)S-3,4,5-trimethylpiperazin-1-yl]pyrimidin-4-yl}-N-(2-{imidazo[1,2-a]pyridin-3-yl}propan-2-yl)azetidine-3-carboxamide] | 130 nM |  | 31 nM | > 910 nM | > 3 h | 
10 | COCC1CN(c2ncc(Cl)c(N3CC(C(=O)NC(C)(C)c4cnc5ccccn45)C3)n2)CCN1C (centres unmarked) [Example 80] | 7.9 nM |  | 23 nM | 97 nM | 0.743 h | 
11 | O=C(NCc1cnc2ccccn12)C1CN(c2nc(N3CCCNCC3)ncc2F)C1 [Example 6] | 130 nM | > 10000 nM |  |  |  | 
12 | C[C@@H]1CN(c2ncc(F)c(N3CC(C(=O)NC(C)(C)c4cnc5ccccn45)C3)n2)C[C@H](C)N1 [Example 44] | 32 nM |  | 120 nM | 540 nM | > 3 h | 
13 | C[C@H]1CN(c2ncc(Cl)c(N3CC(C(=O)NC(C)(C)c4cnc5ccccn45)C3)n2)C[C@H](C)N1C [Example 95, 1-{5-chloro-2-[(3S,5S)-3,4,5-trimethylpiperazin-1-yl]pyrimidin-4-yl}-N-(2-{imidazo[1,2-a]pyridin-3-yl}propan-2-yl)azetidine-3-carboxamide] | 34 nM |  | 17 nM | 150 nM | 1.51 h | 
14 | COCCN1CCN(c2ncc(Cl)c(N3CC(C(=O)NC(C)(C)c4cnc5ccccn45)C3)n2)CC1 [Example 72] | 7.7 nM |  | 82 nM | > 590 nM | > 3 h | half-life ([6]; cassette dosing of 4 compounds): 2.7 h; bioavailability [6, 8]: 34%
15 | O=C(NCc1cnc2cc(Cl)ccn12)C1CN(c2nc(N3CCCNCC3)ncc2Cl)C1 [Example 22] | 3.8 nM | 450 nM |  |  |  | 
16 | C[C@@H]1CN(c2ncc(F)c(N3CC(C(=O)NC(C)(C)c4cnc5ccccn45)C3)n2)CCN1C [Example 84, 1-{2-[(3R)-3,4-dimethylpiperazin-1-yl]-5-fluoropyrimidin-4-yl}-N-(2-{imidazo[1,2-a]pyridin-3-yl}propan-2-yl)azetidine-3-carboxamide] | 4.6 nM |  | 33 nM | 34 nM | 2.41 h | 
17 | C[C@@H]1CN(c2ncc(F)c(N3CC(C(=O)NC(C)(C)c4cnc5ccccn45)C3)n2)C[C@H](C)N1C [Example 90, 1-{5-fluoro-2-[(3R,5S)-3,4,5-trimethylpiperazin-1-yl]pyrimidin-4-yl}-N-(2-{imidazo[1,2-a]pyridin-3-yl}propan-2-yl)azetidine-3-carboxamide] | 19 nM |  | 94 nM | 300 nM | > 3 h | 
18 | COc1cnc(N2CCN[C@H](C)C2)nc1N1CC(C(=O)NC(C)(C)c2cnc3ccccn23)C1 [Example 36] | 6.2 nM | 12 nM |  |  |  | 
19 | O=C(NCc1nnc2ccccn12)C1CN(c2nc(N3CCCNCC3)ncc2Cl)C1 [Example 112] |  | > 10000 nM | 319 nM |  |  | 
20 | CCN(CC)CCCC(C)Nc1ccnc2cc(Cl)ccc12 (centres unmarked) [chloroquine, reference compound] |  |  |  |  |  | mice / smears parasite free ([7]; 4×50 mg/kg p.o., day 7): parasite-free
21 | CN1CCCN(c2ncc(F)c(N3CC(C(=O)NCc4cnc5ccccn45)C3)n2)CC1 [Example 52] | 47 nM | > 10000 nM |  |  |  | 
22 | CN1CCN(c2ncc(F)c(N3CC(C(=O)N(C)C(C)(C)c4cnc5ccccn45)C3)n2)CC1 [Example 78] | 120 nM |  | 400 nM | > 1000 nM | > 3 h | half-life ([6]; cassette dosing of 4 compounds): 2.3 h; bioavailability [6, 8]: 73%
23 | Cc1ccc2ncc(C(C)(C)NC(=O)C3CN(c4nc(N5CCN(C)CC5)ncc4Cl)C3)n2c1 [Example 67] | 5.6 nM |  |  | 120 nM | > 3 h | 
24 | O=C(NCc1cnc2ccccn12)C1CN(c2nc(N3CCNCC3)ncc2Cl)C1 [Example 25] | 15 nM | 1090 nM |  |  |  | 
25 | C[C@H]1CN(c2ncc(Cl)c(N3CCC(C(=O)NC(C)(C)c4cnc5ccccn45)CC3)n2)CCN1C [Example 101, 1-{5-chloro-2-[(3S)-3,4-dimethylpiperazin-1-yl]pyrimidin-4-yl}-N-(2-{imidazo[1,2-a]pyridin-3-yl}propan-2-yl)piperidine-4-carboxamide] | 33 nM |  | 310 nM | > 1000 nM | 1.74 h | half-life ([6]; cassette dosing of 4 compounds): 5.4 h; bioavailability [6, 8]: 32%
26 | C[C@@H]1CN(c2ncc(Cl)c(N3CC(C(=O)NC(C)(C)c4cnc5ccccn45)C3)n2)C[C@H](C)N1C [Example 89, 1-{5-chloro-2-[(3R,5S)-3,4,5-trimethylpiperazin-1-yl]pyrimidin-4-yl}-N-(2-{imidazo[1,2-a]pyridin-3-yl}propan-2-yl)azetidine-3-carboxamide] | 12 nM |  | 27 nM | 88 nM | > 3 h | 
27 | COc1cnc(N2CCN[C@@H](C)C2)nc1N1CC(C(=O)NC(C)(C)c2cnc3ccccn23)C1 [Example 39] | 12 nM | 85 nM |  |  |  | 
28 | C[C@H]1CN(C)CCN1c1ncc(Cl)c(N2CC(C(=O)N(C)C(C)(C)c3cnc4ccccn34)C2)n1 [Example 107, 1-{5-chloro-2-[(2S)-2,4-dimethylpiperazin-1-yl]pyrimidin-4-yl}-N-(2-{imidazo[1,2-a]pyridin-3-yl}propan-2-yl)-N-methylazetidine-3-carboxamide] |  |  |  | 140 nM |  | half-life ([6]; cassette dosing of 4 compounds): 1.7 h; bioavailability [6, 8]: 37%
